# Source: patent publication US4016193A, “Novel substituted phenylacetic acid derivatives and a process for preparing thereof” (Mitsubishi Yuka Pharmaceutical Co., Ltd., priority 1974, dated 1977)
# Where two headings read alike, the source gives them in different places.
# Experiments:
# carrageenin edema = assay: Anti-inflammatory activity: inhibition of carrageenin edema of the rat paw, oral; format: in vivo, wistar male rats; conditions: read-out: inhibiting rate; for inhibition in vivo at 12.5 mg/kg: 12.5 mg/kg orally; for inhibition in vivo at 12.5 mg/kg / inhibition in vivo at 25 mg/kg / inhibition in vivo at 50 mg/kg / inhibition in vivo at 100 mg/kg: rats, 4 hours after carrageenin; for inhibition in vivo at 25 mg/kg: 25 mg/kg orally; for inhibition in vivo at 50 mg/kg: 50 mg/kg orally; for inhibition in vivo at 100 mg/kg: 100 mg/kg orally
# Procedure: The anti-inflamatory activity is shown by inhibiting rate calculated from measurement of carrageenin edema intensity. Five wistar male rats having body weight of 120 - 180g are defined as one group and after fasted for 18 hours, the sample containing a 1% tragacanth solution such as is suspended so as to become 5 ml/kg was administered orally to the said group. Only the same volume of the 1% tragacanth solution was administered to the control group. After one hour, 0.05 ml of a 1% carrageenin (manufactured by Picnin-A, Pasco International Corp.) was injected subcutaneously to the plantar legion of right hind paw of rats. Before injection and after 4 hours of injection of carrageenin, the right hind paw volume was measured by means of paw volume measurement instrument manufactured by Ugo-Basile and an increase % of paw volume was calculated. The inhibiting rate was calculated from an increase ratio of the examined group against the central groups.
# [1] = test system: writhing syndrome caused by acetic acid; assay: Analgesic activity, acetic acid writhing method, oral; format: in vivo, dd origin male mice; conditions: for ED50: Mus musculus, po, read-out: ED50 (analgesic activity); for activity ratio: ratio of ED50 values, methyl 3-nitro-4-allyloxyphenylacetate defined as 1
# Procedure: (b) The analgesic activity was measured by means of acetic and writhing
# 10dd origin male mice weighing 17 -
# 25g were used as one group after 18 hours of fasting. After oral
# administration of the test compounds the frequencies of writhing syndrome
# caused by intraperitoneal administration of 0.1 ml/10g of a 0.6% acetic
# acid were measured for 20 minutes. The frequencies of writhing syndrome
# which are below 50% of those of the control group were defined as
# analgesic activity (+) and the ED50 values were calculated by means of
# Litchfield-Wilcoxon method. The ED50 value of methyl
# 3-nitro-4-allyloxyphenylacetate is defined as 1 and the activity ratios of
# the test compounds were expressed as ratio of ED50 values. The test
# compounds were administered as a suspension such as are adjusted to be 0.1
# ml/10g in a 1% tragacanth solution. A 1% tragacanth solution was
# administered to the control group.
# in vivo = conditions: rat, po, orally, rats
# [2] = orally, mice, 0.6% acetic acid i.p., Litchfield-Wilcoxon method
structure (smiles),measurement,setting,value
C=CCOc1ccc(CC(=O)O)cc1[N+](=O)[O-] [3-Nitro-4-allyloxyphenylacetic acid],inhibition in vivo at 12.5 mg/kg,carrageenin edema,13.9%
same,inhibition in vivo at 25 mg/kg,carrageenin edema,24.3%
same,inhibition in vivo at 50 mg/kg,carrageenin edema,66.6%
same,ED50,[1]; [2],96 mg/kg
same,activity ratio,[1],0.32
same,LD50,in vivo; female,1360 mg/kg
same,LD50,in vivo; male,1480 mg/kg
C=CCOc1ccc(CC(=O)O)cc1Cl [3-chloro-4-allyloxyphenylacetic acid],inhibition in vivo at 25 mg/kg,carrageenin edema,47%
same,inhibition in vivo at 50 mg/kg,carrageenin edema,51.8%
same,inhibition in vivo at 100 mg/kg,carrageenin edema,62%
same,ED50,[1]; [2],56.8 mg/kg
COc1cc(C)nc(-n2nc(C)cc2OC)n1 [Mepirizole],inhibition in vivo at 25 mg/kg,carrageenin edema,19.5%
same,inhibition in vivo at 50 mg/kg,carrageenin edema,51.8%
same,inhibition in vivo at 100 mg/kg,carrageenin edema,52.7%
same,ED50,[1]; [2],117 mg/kg
same,activity ratio,[1],0.26
same,LD50,in vivo; female,971 mg/kg
same,LD50,in vivo; male,1020 mg/kg
C=CCOc1ccc(C(C)C(=O)OC)cc1[N+](=O)[O-] (stereo not shown) [Methyl 2-(3-nitro-4-allyoxyphenyl)propionate],inhibition in vivo at 100 mg/kg,carrageenin edema,50.1%
C#CCOc1ccc(CC(=O)OC)cc1[N+](=O)[O-] [Methyl 3-nitro-4-propargyloxyphenylacetate],inhibition in vivo at 100 mg/kg,carrageenin edema,44.9%
CC(=O)Oc1ccccc1C(=O)O [Aspirin],ED50,[1],320 mg/kg
same,activity ratio,[1],0.09
COc1ccc2c(c1)c(CC(=O)O)c(C)n2C(=O)c1ccc(Cl)cc1 [Indomethacine],inhibition in vivo at 1 mg/kg,carrageenin edema; 4 h,39.8%
same,inhibition in vivo at 3 mg/kg,carrageenin edema; 4 h,46%
same,inhibition in vivo at 9 mg/kg,carrageenin edema; 4 h,60.4%
C=CCOc1ccc(CC(N)=O)cc1[N+](=O)[O-] [3-nitro-4-allyloxyphenylacetamide],inhibition in vivo at 100 mg/kg,carrageenin edema,37.7%
C=CCOc1ccc(C(C)C(=O)O)cc1[N+](=O)[O-] (stereo not shown) [2-(3-nitro-4-allyloxyphenyl)propionic acid],inhibition in vivo at 100 mg/kg,carrageenin edema,40.1%
C=CCOc1ccc(CC(=O)OC)cc1[N+](=O)[O-] [Methyl 3-nitro-4-allyloxyphenylacetate],inhibition in vivo at 12.5 mg/kg,carrageenin edema,51.7%
same,inhibition in vivo at 25 mg/kg,carrageenin edema,72.1%
same,ED50,[1]; [2],31 mg/kg
same,LD50,in vivo; female,> 3000 mg/kg
same,LD50,in vivo; male,> 3000 mg/kg
CCCCC1C(=O)N(c2ccccc2)N(c2ccccc2)C1=O [Phenylbutazone],inhibition in vivo at 12.5 mg/kg,carrageenin edema,14.1%
same,inhibition in vivo at 25 mg/kg,carrageenin edema,49.1%
same,inhibition in vivo at 50 mg/kg,carrageenin edema,59.4%
C=CCOc1ccc(C(C)C(=O)OCC)cc1[N+](=O)[O-] (stereo not shown) [Ethyl 2-(3-nitro-4-allyloxyphenyl)propionate],inhibition in vivo at 100 mg/kg,carrageenin edema,55.5%
C#CCOc1ccc(CC(=O)O)cc1[N+](=O)[O-] [3-Nitro-4-propargyloxyphenylacetic acid],inhibition in vivo at 50 mg/kg,carrageenin edema,28.8%
same,inhibition in vivo at 100 mg/kg,carrageenin edema,40.3%
Cc1c(N(C)C)c(=O)n(-c2ccccc2)n1C [Aminopyrine],ED50,[1]; [2],80 mg/kg
same,activity ratio,[1],0.38
